In ChEMBL document CHEMBL1135558, “Chemical modification of reveromycin A and its biological activities” (Bioorg Med Chem Lett, 2002):

Tests used:
[1] = biological target: T1, Isoleucyl-tRNA synthetase (Rattus norvegicus, UniProt O35880); assay: Inhibitory concentration against Isoleucyl-tRNA synthetase (IleRS) activity
T1 sequence (O35880 whole entry): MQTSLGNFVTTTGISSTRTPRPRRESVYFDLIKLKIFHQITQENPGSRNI

NRK [2] = assay: In vitro inhibition of protein synthesis in srcts-NRK cell at 1 ug/mL; type: functional; settings: Rattus norvegicus
NRK [3] = assay: Morphological reversion of srcts-NRK cells concentration at 100 ug/mL; type: functional, Rattus norvegicus
NRK [4] = assay: Morphological reversion of src-transformed-NRK cells at 20 ug/mL; type: functional, Rattus norvegicus
NRK [5] = assay: Morphological reversion of src-transformed-NRK cells at 50 ug/mL; type: functional
NRK [6] = assay: Morphological reversion of src-transformed-NRK cells at 10 ug/mL; type: functional, Rattus norvegicus
NRK [7] = assay: Morphological reversion of src-transformed-NRK cells at 5 ug/mL; type: functional, Rattus norvegicus
NRK [8] = assay: In vitro inhibition of protein synthesis in src-transformed-NRK cell at 1 ug/mL; type: functional; settings: Rattus norvegicus
NRK [9] = assay: Morphological reversion of src-transformed-NRK cells at 0.1 ug/mL; type: functional, Rattus norvegicus
NRK [10] = assay: Morphological reversion of src-transformed-NRK cells at 2 ug/mL; type: functional, Rattus norvegicus
NRK [11] = assay: Morphological reversion of src-transformed-NRK cells at 1 ug/mL; type: functional, Rattus norvegicus
NRK [12] = assay: Morphological reversion of src-transformed-NRK cells at 5 ug/mL; 20-50; type: functional, Rattus norvegicus

Row | Structure (SMILES) | IC50 [1] [nM] | inhibition at 1 µg/mL (NRK [2]) [%] | Reversion (NRK [3]) [%] | Reversion (NRK [4]) [%] | Reversion (NRK [5]) [%] | Reversion (NRK [6]) [%] | Reversion (NRK [7]) [%] | inhibition at 1 µg/mL (NRK [8]) [%] | Reversion (NRK [9]) [%] | Reversion (NRK [10]) [%] | Reversion (NRK [11]) [%] | Reversion (NRK [12]) [%]
1 | CCCC[C@]1([C@@H](O)/C=C/C(C)=C/C(=O)O)CC[C@]2(CC[C@H](C)[C@@H](C/C=C(C)/C=C/[C@H](O)[C@@H](C)/C=C/C(=O)O)O2)O1 | < 1780 | < 20 | <20 | – | – | – | – | – | – | – | – | –
2 | CCCC[C@@]1(OC)CC[C@]2(CC[C@H](C)[C@@H](C/C=C(C)/C=C/[C@H](O)[C@@H](C)/C=C/C(=O)O)O2)O[C@H]1/C=C/C(C)=C/C(=O)O | 44.4 | > 80 | >80 | 50 | >80 | 50 | – | – | – | – | – | –
3 | CCCC[C@@]1(OC(=O)CCC(=O)O)CC[C@]2(CC[C@H](C)[C@@H](C/C=C(C)/C=C/[C@H](OC(C)=O)[C@@H](C)/C=C/C(=O)O)O2)O[C@H]1/C=C/C(C)=C/C(=O)O | < 1420 | – | >80 | >80 | >80 | 50 | <20 | < 20 | – | – | – | –
4 | CCCC[C@@]1(OC(=O)CCC(=O)OC)CC[C@]2(CC[C@H](C)[C@@H](C/C=C(C)/C=C/[C@H](O)[C@@H](C)/C=C/C(=O)OC)O2)O[C@H]1/C=C/C(C)=C/C(=O)O | 1450 | < 20 | >80 | – | – | >80 | >80 | – | 20 | >80 | >80 | –
5 | CCCC[C@@]1(OC(=O)CCC(=O)O)CC[C@]2(CC[C@H](C)[C@@H](C/C=C(C)/C=C/[C@H](OC)[C@@H](C)/C=C/C(=O)O)O2)O[C@H]1/C=C/C(C)=C/C(=O)O | 245 | 50 | <20 | – | – | – | – | – | – | – | – | –
6 | CCCC[C@]1([C@H](/C=C/C(C)=C/C(=O)O)OC)CC[C@]2(CC[C@H](C)[C@@H](C/C=C(C)/C=C/[C@H](O)[C@@H](C)/C=C/C(=O)O)O2)O1 | < 1740 | < 20 | <20 | – | – | – | – | – | – | – | – | –
7 | CCCC[C@@]1(OC(=O)CCC(=O)O)CC[C@]2(CC[C@H](C)[C@@H](CCC(C)CC[C@H](O)[C@@H](C)CCC(=O)O)O2)O[C@H]1CCC(C)CC(=O)O (stereo partly drawn) | < 1490 | < 20 | <20 | – | – | – | – | – | – | – | – | –
8 | CCCC[C@@]1(O)CC[C@]2(CC[C@H](C)[C@@H](C/C=C(C)/C=C/[C@H](O)[C@@H](C)/C=C/C(=O)O)O2)O[C@H]1/C=C/C(C)=C/C(=O)O | 74.4 | > 80 | <20 | – | – | – | – | – | – | – | – | –
9 | CCCC[C@@]1(OC(=O)CCC(=O)OC)CC[C@]2(CC[C@H](C)[C@@H](C/C=C(C)/C=C/[C@H](O)[C@@H](C)/C=C/C(=O)OC)O2)O[C@H]1/C=C/C(C)=C/C(=O)OC | < 1420 | < 20 | <20 | – | – | – | – | – | – | – | – | –
10 | CCCC[C@@]1(OCSC)CC[C@]2(CC[C@H](C)[C@@H](C/C=C(C)/C=C/[C@H](O)[C@@H](C)/C=C/C(=O)O)O2)O[C@H]1/C=C/C(C)=C/C(=O)OC | < 1580 | < 20 | <20 | – | – | – | – | – | – | – | – | –
11 | CCCC[C@@]1(OCSC)CC[C@]2(CC[C@H](C)[C@@H](C/C=C(C)/C=C/[C@H](O)[C@@H](C)/C=C/C(=O)O)O2)O[C@H]1/C=C/C(C)=C/C(=O)O | 353 | > 80 | >80 | – | 50 | <20 | – | – | – | – | – | –
12 | CCCC[C@@]1(OC(=O)CCC(=O)O)CC[C@]2(CC[C@H](C)[C@@H](C/C=C(C)/C=C/[C@H](O)[C@@H](C)/C=C/C(=O)O)O2)O[C@H]1/C=C/C(C)=C/C(=O)O [REVEROMYCIN A] | 1.97 | > 80 | >80 | >80 | >80 | 50 | – | – | – | <20 | – | 20
13 | CCCC[C@]1([C@H](/C=C/C(C)=C/C(=O)O)OC(=O)CCC(=O)O)CC[C@]2(CC[C@H](C)[C@@H](C/C=C(C)/C=C/[C@H](O)[C@@H](C)/C=C/C(=O)O)O2)O1 [REVEROMYCIN B] | < 1510 | < 20 | <20 | – | – | – | – | – | – | – | – | –
